“And” between values parts separate entries of the source, which are not always exact repeats. Equal entries are not always repeated.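 Each compound was tested at five concentrations against cells in 96-well plates for 48 hours. At the GI50, growth is halved. At the TGI there is no net growth.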
Tests used:
Assay in all cases: growth of human tumour cells (NCI), 48 h
786-0 renal = tested on: 786-0 renal
ACHN renal = tested on: ACHN renal
EKVX NSCLC = tested on: EKVX NSCLC
HOP-62 NSCLC = tested on: HOP-62 NSCLC
IGROV1 ovarian = tested on: IGROV1 ovarian
MCF7 breast = tested on: MCF7 breast
NCI-H226 lung = tested on: NCI-H226 lung
RXF 393 renal = tested on: RXF 393 renal
SNB-75 CNS = tested on: SNB-75 CNS
SR leukemia = tested on: SR leukemia
UACC-62 melanoma = tested on: UACC-62 melanoma

Row | Compound | TGI (786-0 renal) | TGI (ACHN renal) | TGI (EKVX NSCLC) | TGI (HOP-62 NSCLC) | TGI (IGROV1 ovarian) | TGI (MCF7 breast) | TGI (NCI-H226 lung) | TGI (RXF 393 renal) | TGI (SNB-75 CNS) | TGI (SR leukemia) | TGI (UACC-62 melanoma) | GI50 (ACHN renal) | GI50 (EKVX NSCLC) | GI50 (HOP-62 NSCLC) | GI50 (IGROV1 ovarian) | GI50 (MCF7 breast) | GI50 (NCI-H226 lung) | GI50 (SNB-75 CNS) | GI50 (UACC-62 melanoma)
1 | CCOC1=NC(C(F)(F)F)(C(F)(F)F)N=C(/N=C(/N)N(C)C(C(C)C)P(=O)(OC(C)C)OC(C)C)O1 (stereo not given) | > 100 µM | > 100 µM | > 100 µM | > 100 µM | > 100 µM | > 100 µM | > 100 µM | > 100 µM | > 100 µM | > 100 µM | > 100 µM |  |  |  |  |  |  |  | 
2 | O=C1CCCC1C(O)(C(F)(F)Cl)C(F)(F)Cl (stereo not given) | > 10 µM | > 10 µM | > 10 µM | > 10 µM | > 10 µM | > 10 µM | > 10 µM | > 10 µM | > 10 µM | > 10 µM | > 10 µM |  |  |  |  |  |  |  | 
3 | O=C(CCCN1CCC(Nc2ccc(F)cc2)(c2nnnn2C2CCCCC2)CC1)c1ccc(F)cc1 | 37.1 µM | 28.6 µM | 35.4 µM | 33.6 µM | 12.3 µM | 33.1 µM | 36 µM | 25.5 µM | 24.7 µM | > 100 µM | 11.2 µM |  |  |  |  |  |  |  | 
4 | COc1cc(C2C(Cl)C(=O)N2NC(=O)c2ccccc2O)cc(OC)c1OC (stereo not given) | > 10 µM | > 10 µM | > 10 µM |  | > 10 µM | 7.36 µM | > 10 µM | > 10 µM | > 10 µM | > 10 µM | > 10 µM |  |  |  |  |  |  |  | 
5 | COc1ccc(-c2nc3ccccc3c(=O)[nH]2)cc1OC | > 100 µM |  | 53.2 µM | > 100 µM | 81.5 µM | > 100 µM | 55.8 µM | 68.1 µM | 55.6 µM | > 100 µM | > 100 µM |  |  |  |  |  |  |  | 
6 | CCCCCC(=O)OC[n+]1ccc(-c2c(COC(=O)NC(C)C)c(COC(=O)NC(C)C)c3n2CCC3)cc1 | > 100 µM | > 100 µM | > 100 µM | > 100 µM | > 100 µM | > 100 µM | > 100 µM | > 100 µM | > 100 µM | > 80.9 µM | > 100 µM |  |  |  |  |  |  |  | 
7 | O=C1C=C(NCCc2ccc(O)cc2)C(=O)C=C1NCCc1ccc(O)cc1 | > 100 µM | > 100 µM | > 100 µM | > 100 µM | > 100 µM | > 100 µM | > 100 µM | > 100 µM | 47.5 µM | > 100 µM | > 100 µM |  |  |  |  |  |  |  | 
8 | COC(=O)/C=C/c1cc(OC)c2c(c1)C(C(=O)OC)C(c1ccc(O)c(OC)c1)O2 (stereo not given) | > 100 µM and > 49.7 µM and 36.3 µM | > 100 µM | > 100 µM and 57.6 µM | > 100 µM | > 100 µM and 35.2 µM | > 100 µM and > 69.5 µM and 42.9 µM | > 100 µM and > 88.2 µM and 12.7 µM | 9.76 µM and 7.8 µM and > 43.6 µM | 4.36 µM and 6.67 µM and 15.2 µM | > 25.7 µM and 3.91 µM | > 56.1 µM and 36.4 µM and 32.9 µM | > 26.2 µM and 15.9 µM and 7.59 µM | > 29.4 µM and 18.5 µM and 3.45 µM | 12 µM and 5.12 µM and 7.2 µM | 4.9 µM and 2.61 µM and 2.09 µM | 1.9 µM and 2.05 µM and 0.69 µM | 32.9 µM and 10.3 µM and 4.53 µM | 0.91 µM | 2.42 µM and 3.37 µM and 1.57 µM
9 | N#C[C@H](c1nc2ccccc2[nH]1)c1nc2ccccc2nc1Cl | > 100 µM | > 46 µM | 30 µM | > 31.1 µM | 30.2 µM | > 100 µM | 64.7 µM | > 100 µM | 41.1 µM | 13.8 µM | > 38.8 µM |  |  |  |  |  |  |  | 

From PubChem BioAssay (NCI)
